Test results published in US12559464B2, “Quinazolinone dione compounds and uses thereof” (Edgewise Therapeutics, Inc., priority 2023, dated 2026).

Tests used:
[1] = test system: myosin ATPase, Rabbit Psoas myofibrils; experiment: Myofibril ATPase assay, rabbit psoas (skeletal) myofibrils; type: biochemical; settings: concentration required to reduce myosin ATP-ase activity by 25%; Rabbit Psoas Prep pCa 25 GEOM_MEAN
[2] = test system: myosin ATPase, Porcine Atria myofibrils; experiment: Myofibril ATPase assay, porcine atria myofibrils; type: biochemical; settings: concentration required to reduce myosin ATP-ase activity by 25%; Porcine Atria Prep pCa 25 GEOM_MEAN
[3] = target: T1, myosin ATPase, Porcine Ventricle myofibrils (Sus scrofa, UniProt P79293); experiment: Myofibril ATPase assay, porcine ventricle myofibrils; type: biochemical, porcine (Yucatan minipigs); settings: concentration required to reduce myosin ATP-ase activity by 25%; Porcine Ventricle Prep pCa 25 GEOM_MEAN
T1 construct: Myofibrils from porcine cardiac muscle was isolated from the left ventricle of Yucatan minipigs; tissue Exemplar Genetics; host or cells: left ventricle of Yucatan minipigs, myofibrils
T1 sequence (P79293 whole entry): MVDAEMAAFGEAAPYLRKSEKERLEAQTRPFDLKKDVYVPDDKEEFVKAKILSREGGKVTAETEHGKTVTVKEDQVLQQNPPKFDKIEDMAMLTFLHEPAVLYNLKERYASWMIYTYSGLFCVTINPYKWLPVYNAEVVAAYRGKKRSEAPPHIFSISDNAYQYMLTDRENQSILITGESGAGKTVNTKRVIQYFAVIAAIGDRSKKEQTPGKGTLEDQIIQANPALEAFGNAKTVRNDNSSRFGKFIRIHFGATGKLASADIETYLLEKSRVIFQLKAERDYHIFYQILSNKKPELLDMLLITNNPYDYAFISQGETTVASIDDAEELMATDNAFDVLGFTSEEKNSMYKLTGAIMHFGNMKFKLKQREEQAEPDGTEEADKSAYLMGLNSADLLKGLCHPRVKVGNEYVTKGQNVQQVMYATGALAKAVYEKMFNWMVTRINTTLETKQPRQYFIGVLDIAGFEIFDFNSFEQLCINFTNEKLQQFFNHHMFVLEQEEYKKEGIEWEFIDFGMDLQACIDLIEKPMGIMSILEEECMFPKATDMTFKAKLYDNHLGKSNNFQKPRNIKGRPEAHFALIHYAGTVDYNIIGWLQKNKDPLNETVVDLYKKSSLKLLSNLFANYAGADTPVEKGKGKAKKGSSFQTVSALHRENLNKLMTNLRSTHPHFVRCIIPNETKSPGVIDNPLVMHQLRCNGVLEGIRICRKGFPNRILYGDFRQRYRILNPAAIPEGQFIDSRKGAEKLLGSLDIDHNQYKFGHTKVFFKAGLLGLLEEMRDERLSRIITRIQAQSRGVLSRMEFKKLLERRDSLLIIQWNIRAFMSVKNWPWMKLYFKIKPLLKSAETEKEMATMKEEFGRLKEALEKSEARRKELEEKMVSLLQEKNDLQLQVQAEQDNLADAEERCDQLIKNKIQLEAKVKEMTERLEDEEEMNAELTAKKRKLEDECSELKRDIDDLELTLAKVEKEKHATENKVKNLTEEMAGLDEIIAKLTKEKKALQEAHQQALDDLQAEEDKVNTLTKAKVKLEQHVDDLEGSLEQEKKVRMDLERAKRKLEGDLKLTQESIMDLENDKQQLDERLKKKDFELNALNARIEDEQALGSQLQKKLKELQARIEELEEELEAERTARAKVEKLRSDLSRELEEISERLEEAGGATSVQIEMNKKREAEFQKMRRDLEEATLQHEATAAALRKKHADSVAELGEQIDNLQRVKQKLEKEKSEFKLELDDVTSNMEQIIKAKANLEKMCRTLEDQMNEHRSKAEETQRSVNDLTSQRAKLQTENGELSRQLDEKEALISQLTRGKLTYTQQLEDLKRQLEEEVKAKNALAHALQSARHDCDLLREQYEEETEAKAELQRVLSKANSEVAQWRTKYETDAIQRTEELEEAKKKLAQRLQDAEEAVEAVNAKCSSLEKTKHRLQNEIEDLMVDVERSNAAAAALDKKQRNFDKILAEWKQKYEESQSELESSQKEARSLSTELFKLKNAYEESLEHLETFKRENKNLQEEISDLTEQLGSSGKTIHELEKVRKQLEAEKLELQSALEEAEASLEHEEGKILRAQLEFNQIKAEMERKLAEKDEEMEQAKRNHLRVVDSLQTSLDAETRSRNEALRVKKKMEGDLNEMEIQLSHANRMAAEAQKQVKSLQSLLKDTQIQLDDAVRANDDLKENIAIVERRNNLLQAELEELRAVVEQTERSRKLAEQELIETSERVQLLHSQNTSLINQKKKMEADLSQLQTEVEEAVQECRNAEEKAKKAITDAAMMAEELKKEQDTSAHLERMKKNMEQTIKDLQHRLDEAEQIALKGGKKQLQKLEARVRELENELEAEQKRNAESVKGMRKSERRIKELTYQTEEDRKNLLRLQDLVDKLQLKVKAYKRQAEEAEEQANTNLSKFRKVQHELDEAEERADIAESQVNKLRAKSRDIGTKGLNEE
Summary of the method: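 Myofibrils from Yucatan minipig left ventricle; ADP production coupled via PK-LDH to NADH loss, read kinetically at 340 nm every 1.5–2 min for 75 min in PIPES/MgCl2 pH 7.0 buffer. Slopes normalized to vehicle and fit to 4-parameter logistic; values are concentrations giving 75% (inhibition) or 125% (activation) of vehicle activity.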

O=C(Cn1c(=O)[nH]c2ccccc2c1=O)NCc1ccc(F)cc1F [Compound 5009, N-(2,4-difluorobenzyl)-2-(2,4-dioxo-1,4-dihydroquinazolin-3(2H)-yl)acetamide]
100 µM: Rabbit Psoas EC25 (Y75 value) [1] | Porcine Atria EC25 (Y75 value) [2] | Porcine Ventricle EC25 (Y75 value) [3]
